Where two headings read alike, the source gives them in different places.
Assays:
[1] = system: human lung cancer cell A549; assay: CCK-8 cell proliferation inhibition, A549; type: cell-based; conditions: read-out: IC50 A549
Experimental: (§1) Take more than 90% of live cells for experiments. Cell proliferation inhibition test uses EnoGeneCell™ Counting Kit-8 (CCK-8) cell viability detection kit. Cells are digested and counted to make a cell suspension with a concentration of 1×10^5 cells/mL, 100 μL of cell suspension (1×10^4 cells per well) was added to each well of a 96-well plate; Incubate in a 5% CO2 incubator for 24 hours; add 100 μL of the corresponding drug-containing culture medium to each well, and set a negative control group, a vehicle control group, and a positive control group, with 5 replicates in each group; place the 96-well plate at 37° C.

[2] = system: human gastric cancer cell MKN45; assay: CCK-8 cell proliferation inhibition, MKN45; type: cell-based; conditions: MKN-45, 72 h, read-out: IC50 MKN45
Experimental: as §1

[3] = system: human gastric cancer cell MGC-803; assay: CCK-8 cell proliferation inhibition, MGC-803; type: cell-based; conditions: MGC-803, 72 h, read-out: IC50 MGC803
Experimental: as §1

[4] = system: human liver cancer cell HepG2; assay: CCK-8 cell proliferation inhibition, HepG2; type: cell-based; conditions: Homo sapiens, HepG2, 72 h, read-out: IC50 HepG2
Experimental: as §1

[5] = system: human cervical cancer cell HeLa; assay: CCK-8 cell proliferation inhibition, HeLa; type: cell-based; conditions: Homo sapiens, HeLa, 72 h, read-out: IC50 Hela
Experimental: as §1

[6] = system: human colon cancer cell HCT-116; assay: CCK-8 cell proliferation inhibition, HCT-116; type: cell-based; conditions: Homo sapiens, HCT-116, 72 h, read-out: IC50 HTC116
Experimental: as §1

Tubulin = Tubulin polymerization activity test; type: biochemical; conditions: tubulin 4.8 mg/ml, 37° C., 340 nm; read-out: IC50 (Table 3, tubulin polymerization test)
Experimental: Tubulin (4.8 mg/ml) protein was mixed with the test compound in a PEM buffer (100 mM PIPES, 1 mM MgCl2 and 1 mM EGTA) containing 1 mM GTP and 5% glycerol. A SPECTRA MAX 190 (Molecular Device) spectrophotometer was used to monitor the microtubule polymerization at 37° C. by light scattering at 340 nm, and the microtubule polymerization was calculated from the absorbance value. Each sample was tested three times at ten different concentrations.

Arylsulfatase = Arylsulfatase activity assay in vitro; type: biochemical
Experimental: Weigh an appropriate amount of the test compound and dissolve it in dimethyl sulfoxide. Dilute it with Tris-HCl buffer for 2, 5, 10, 20, 50, 100, 200, 500, 1000, 2000, 5000, and 10,000 times. Add another dilution gradient to the sample. Arylsulfatase and potassium p-nitrophenyl sulfate are directly dissolved in Tris-HCl buffer. 40 μL of the test compound, 50 μL of arylsulfatase and 50 μL of potassium p-nitrobenzene sulfate were added to a 96-well plate for reaction. A blank control without enzymes and a standard control without test compounds are used. The volume is made up with Tris-HCl buffer. 405 nm detection in the microplate reader, each sample is measured for 40 times, and the interval is 30 s. The representative time node within the time period with good linearity of the absorbance value are selected for data analysis. The measured absorbance value are subtracted from the background value of the blank control and the initial value when the reaction time are 0. For comparison, calculate the inhibition rate at different concentrations, and use the built-in forecast function of excel to predict the IC50 value.

[7] = p-nitrophenyl sulfate substrate, 405 nm, read-out: IC50 sulfatase

| SMILES | IC50 ([1]; A549, CCK-8, 72 h) [µM] | IC50 ([2]; CCK-8, 72 h) [µM] | IC50 ([3]; CCK-8, 72 h) [µM] | IC50 ([4]; CCK-8, 72 h) [µM] | IC50 ([5]; CCK-8, 72 h) [µM] | IC50 ([6]; CCK-8, 72 h) [µM] | IC50 (Tubulin) [µM] | IC50 ([1]; A549, 72 h) [µM] | IC50 [2] [µM] | IC50 [3] [µM] | melting point [°C] | IC50 [4] [µM] | IC50 [5] [µM] | IC50 [6] [µM] | IC50 (Arylsulfatase; [7]) [µM] | IC50 (Arylsulfatase; read-out: sulfatase inhibitory activity) [µM] |
| --- | --- | --- | --- | --- | --- | --- | --- | --- | --- | --- | --- | --- | --- | --- | --- | --- |
| COc1ccc(/C=C\c2cc(OC)c(OC)c(OC)c2)cc1O [CA-4, (Z)-3,4,5-trimethoxy-3′-hydroxy-4′-methoxystilbene, reference compound] | 5.99 | 3.44 | 1.76 | 16 | 11.3 | 9 |  |  |  |  |  |  |  |  |  |  |
| COc1ccc(CCc2cc(OC)c(OC)c(OC)c2)cc1OS(N)(=O)=O [Compound A1-3, 3,4,5-trimethoxy-4′-methoxy-3′-sulfamate diphenylethane] | 15.8 | 11.9 | 3.61 | 1.14 | 9.04 | 3.08 | 72.6 |  |  |  |  |  |  |  |  |  |
| CNS(=O)(=O)Oc1cc(/C=C\c2cc(OC)c(OC)c(OC)c2)ccc1OC [Compound A1-4, (Z)-3,4,5-trimethoxy-4′-methoxy-3′-N-methylsulfamate stilbene] |  |  |  |  |  |  |  | 0.269 | 0.369 | 5.05 | 118.4 to 121.6 | 0.263 | 0.317 | 16.8 |  |  |
| COc1ccc(/C=C\c2cc(OC)c(OC)c(OC)c2)cc1OS(=O)(=O)N(C)C [Compound A1-5, (Z)-3,4,5-trimethoxy-4′-methoxy-3′-N,N-dimethylsulfamate stilbene] |  |  |  |  |  |  | 3.1 | 0.987 | 7.14 | 8.95 | 102.7 to 105.6 | 9.96 | 14.3 | 0.366 |  |  |
| CCOc1ccc(/C=C/c2cc(OC)c(OC)c(OC)c2)cc1OS(N)(=O)=O [Compound A2-2, (E)-3,4,5-trimethoxy-4′-ethoxy-3′-sulfamate stilbene] | 4.86 | 8.05 | 7.63 | 2.63 | 5.64 | 9.12 |  |  |  |  |  |  |  |  |  |  |
| CCOc1ccc(CCc2cc(OC)c(OC)c(OC)c2)cc1OS(N)(=O)=O [Compound A2-3, 3,4,5-trimethoxy-4′-ethoxy-3′-sulfamate diphenylethane] | 1.6 | 7.67 | 3.59 | 3.65 | 2.93 | 10.2 |  |  |  |  | 122.3 to 126.7 |  |  |  |  |  |
| COc1cc(/C=C/c2ccc(OC(F)F)c(OS(N)(=O)=O)c2)cc(OC)c1OC [Compound A3-2, (E)-3,4,5-trimethoxy-4′-difluoromethoxy-3′-sulfamate stilbene] |  |  |  |  |  |  | 12.5 | 28.2 | 9.24 | 13.8 | 145.5 to 148.6 | 5.54 | 8.42 | 12.8 |  |  |
| COc1cc(CCc2ccc(OC(F)F)c(OS(N)(=O)=O)c2)cc(OC)c1OC [Compound A3-3] |  | 23.3 | 71.4 | 15.9 | 35.6 | 26.5 | 86.2 |  |  |  | 142.5 to 145.8 |  |  |  |  |  |
| COc1cc(/C=C\c2cccc(OS(N)(=O)=O)c2)cc(OC)c1OC [Compound A4-1, (Z)-3,4,5-trimethoxy-3′-sulfamate stilbene] | 11 | 8.53 | 15.3 | 9.36 | 16.3 | 9.5 |  |  |  |  | 107.1 to 110.6 |  |  |  | 0.47 | < 0.5 |
| COc1cc(/C=C/c2cccc(OS(N)(=O)=O)c2)cc(OC)c1OC [Compound A4-2, (E)-3,4,5-trimethoxy-3′-sulfamate stilbene] | 21.5 | 27 | 25 | 11.8 | 19 | 40.3 |  |  |  |  | 136.3 to 139.7 |  |  |  |  |  |
| COc1cc(CCc2cccc(OS(N)(=O)=O)c2)cc(OC)c1OC [Compound A4-3, 3,4,5-trimethoxy-3′-sulfamate diphenylethane] | 25.8 | 17.6 | 25.7 | 12 | 27.1 | 52.5 |  |  |  |  | 108.4 to 120.8 |  |  |  |  |  |
| COc1ccc(/C=C\c2cc(OC)c(OC)c(OC)c2)cc1NS(N)(=O)=O [Compound A5-1, (Z)-3,4,5-trimethoxy-4′-methoxy-3′-aminosulfamate stilbene] | 0.299 | 0.5 | 9.56 | 0.752 | 0.272 | 3.29 |  |  |  |  | 143.3 to 146.7 |  |  |  |  |  |
| COc1ccc(/C=C/c2cc(OC)c(OC)c(OC)c2)cc1NS(N)(=O)=O [Compound A5-2, (E)-3,4,5-trimethoxy-4′-methoxy-3′-aminosulfamate stilbene] | 7.42 | 6.19 | 18.9 | 7.53 | 0.38 | 8.64 |  |  |  |  | 157.9 to 161.1 |  |  |  |  |  |
| COc1ccc(CCc2cc(OC)c(OC)c(OC)c2)cc1NS(N)(=O)=O [Compound A5-3, 3,4,5-trimethoxy-4′-methoxy-3′-aminosulfamate diphenylethane] | 12 | 8.21 | 73.9 | 8.1 | 2.93 | 30.6 |  |  |  |  | 122.5 to 126.5 |  |  |  |  |  |
| C[C@]12CC[C@@H]3c4ccc(OS(N)(=O)=O)cc4CC[C@H]3[C@@H]1CCC2=O [EMATE, 3-(sulfamoyloxy)-estr-1,3,5 (10)-triene-17-one, reference compound] |  |  |  |  |  |  | 25.9 |  |  |  |  |  |  |  | 5.01 |  |
| COc1ccc(CCc2cc(OC)c(OC)c(OC)c2)cc1O [Erianin, 3,4,5-trimethoxy-3′-hydroxy-4′-methoxydiphenylethane, reference compound] | 0.22 | 0.425 | 0.449 | 0.237 | 0.207 | 6.29 |  |  |  |  |  |  |  |  |  |  |

Source: patent US20200163913A1 (Shanghai Huali Biomedical Co., Ltd., priority 2017, published 2020)
